Results from paper PMC5731253 (Journal of medicinal chemistry, 2017).
“Also recorded” adds a separate entry of the source.

Key:
carboxypeptidase Y = carboxypeptidase Y (Saccharomyces cerevisiae, UniProt P00729); assay: Carboxypeptidase Y-mediated cleavage monitored by 31P-NMR; assay type: in vitro ADME; conditions: for time to complete conversion of the starting material: carboxypeptidase Y; for conversion of the starting material by carboxypeptidase Y: result in words
[1] = test system: human embryonic lung (HEL) fibroblasts; assay: Minimum cytotoxic concentration, HEL cell morphology
HSV-1 (KOS) = assay: Anti-HSV-1; assay type: cell-based, herpes simplex virus type 1; conditions: HEL cell cultures
HSV-2 (G) = assay: Anti-HSV-2; assay type: cell-based, herpes simplex virus type 2; conditions: HEL cell cultures
[2] = test system: thymidine kinase-deficient (TK−) HSV-1 KOS strain; assay type: cell-based, herpes simplex virus type 1; conditions: HEL cell cultures; for Antiviral Activity EC50 HSV-1 TK (KOS): TK-deficient, ACV-resistant strain

carboxypeptidase Y, sequence (P00729 112-532): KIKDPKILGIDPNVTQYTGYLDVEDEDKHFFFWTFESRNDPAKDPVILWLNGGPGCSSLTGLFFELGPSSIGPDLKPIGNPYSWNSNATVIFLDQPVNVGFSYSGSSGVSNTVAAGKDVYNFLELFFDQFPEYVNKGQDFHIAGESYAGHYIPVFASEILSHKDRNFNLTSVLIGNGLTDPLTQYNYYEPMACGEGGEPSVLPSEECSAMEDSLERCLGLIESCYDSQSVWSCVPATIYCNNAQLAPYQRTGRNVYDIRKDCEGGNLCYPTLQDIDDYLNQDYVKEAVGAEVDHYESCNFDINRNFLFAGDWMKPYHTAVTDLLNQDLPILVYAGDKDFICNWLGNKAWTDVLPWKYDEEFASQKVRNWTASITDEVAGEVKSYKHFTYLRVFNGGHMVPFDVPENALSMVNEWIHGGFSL

Row | SMILES | Cytotoxicity MCC ([1]; Table 4 (HCMV/VZV assays)) [µM] | Antiviral Activity EC50 HSV-1 TK (KOS) [2] | Cytotoxicity MCC ([1]; Table 3 (HSV assays)) [µM] | other results
1 | C[C@H](NP(=O)(OCC(CO)CCn1cnc2c(Cl)nc(N)nc21)Oc1ccccc1)C(=O)OCc1ccccc1 (mixture of isomers) [Compound 60] | >100 | – | – | time to complete conversion of the starting material (carboxypeptidase Y): ≤ 0.5 h; conversion of the starting material by carboxypeptidase Y (carboxypeptidase Y): completely converted and full
2 | Nc1nc(O)c2ncn(CSC(CO)CO)c2n1 [Compound 3] | – | – | – | Antiviral Activity EC50 HSV-1 (KOS) (HSV-1 (KOS)): sub-micromolar activity; Antiviral Activity EC50 HSV-2 (G) (HSV-2 (G)): sub-micromolar activity
3 | CC(C)OC(=O)[C@H](C)NP(=O)(OCC(COP(=O)(N[C@@H](C)C(=O)OC(C)C)Oc1cccc2ccccc12)OCn1cnc2c(=O)[nH]c(N)nc21)Oc1cccc2ccccc12 (stereo partly drawn) [Compound 15, 2-amino-9-{[(1,3-dihydroxypropan-2-yl)oxy]methyl}-6,9-dihydro-1H-purin-6-one-[1-naphthyl(isopropoxy-L-alaninyl)] diphosphate] | >100 | marginal activity | ≥100 | –
4 | CC(C)OC(=O)[C@H](C)NP(=O)(OCC(CO)OCn1cnc2c(=O)[nH]c(N)nc21)Oc1cccc2ccccc12 (stereo partly drawn) [Compound 16, 2-amino-9-{[(1,3-dihydroxypropan-2-yl)oxy]methyl}-6,9-dihydro-1H-purin-6-one-[1-naphthyl(isopropoxy-L-alaninyl)]phosphate] | >100 | marginal activity | >100 | conversion of the starting material by carboxypeptidase Y (carboxypeptidase Y): slow and incomplete conversion; also recorded: partial
5 | C[C@H](NP(=O)(OCC(COP(=O)(N[C@@H](C)C(=O)OCc1ccccc1)Oc1ccccc1)OCn1cnc2c(=O)[nH]c(N)nc21)Oc1ccccc1)C(=O)OCc1ccccc1 (stereo partly drawn) [Compound 17] | >100 | considerable activity | >100 | –
6 | C[C@H](NP(=O)(OCC(COP(=O)(N[C@@H](C)C(=O)OCc1ccccc1)Oc1cccc2ccccc12)OCn1cnc2c(=O)[nH]c(N)nc21)Oc1cccc2ccccc12)C(=O)OCc1ccccc1 (stereo partly drawn) [Compound 18] | >50 | – | – | fold difference in EC50 values between HSV-1 TK+ and TK− strains [2]: < 2.5 fold
7 | CC(C)(NP(=O)(OCC(COP(=O)(NC(C)(C)C(=O)OCc1ccccc1)Oc1ccccc1)OCn1cnc2c(=O)[nH]c(N)nc21)Oc1ccccc1)C(=O)OCc1ccccc1 (stereo not drawn) [Compound 19] | – | – | – | fold difference in EC50 values between HSV-1 TK+ and TK− strains [2]: < 2.5 fold
8 | CC(C)(NP(=O)(OCC(COP(=O)(NC(C)(C)C(=O)OCc1ccccc1)Oc1cccc2ccccc12)OCn1cnc2c(=O)[nH]c(N)nc21)Oc1cccc2ccccc12)C(=O)OCc1ccccc1 (stereo not drawn) [Compound 21] | – | considerable activity | >100 | –
9 | CC(C)(NP(=O)(OCC(CO)OCn1cnc2c(=O)[nH]c(N)nc21)Oc1cccc2ccccc12)C(=O)OCc1ccccc1 (stereo not drawn) [Compound 22] | >50 | – | >100 | fold difference in EC50 values between HSV-1 TK+ and TK− strains [2]: < 2.5 fold
10 | C[C@H](NP(=O)(OCC(CO)OCn1cnc2c(=O)[nH]c(N)nc21)Oc1cccc2ccccc12)C(=O)OCc1ccccc1 (stereo partly drawn) [Compound 28] | >100 | considerable activity | >100 | –
11 | C[C@H](NP(=O)(OCC(CCn1cnc2c(=O)[nH]c(/N=C/N(C)C)nc21)COP(=O)(N[C@@H](C)C(=O)OCc1ccccc1)Oc1ccccc1)Oc1ccccc1)C(=O)OCc1ccccc1 (stereo partly drawn) [Compound 30] | – | inactive | >100 | Antiviral Activity EC50 HSV-1 (KOS) (HSV-1 (KOS)): inactive; Antiviral Activity EC50 HSV-2 (G) (HSV-2 (G)): inactive
12 | C[C@H](NP(=O)(OCC(CCn1cnc2c(=O)[nH]c(/N=C/N(C)C)nc21)COP(=O)(N[C@@H](C)C(=O)OCc1ccccc1)Oc1cccc2ccccc12)Oc1cccc2ccccc12)C(=O)OCc1ccccc1 (stereo partly drawn) [Compound 31] | – | inactive | – | Antiviral Activity EC50 HSV-1 (KOS) (HSV-1 (KOS)): inactive; Antiviral Activity EC50 HSV-2 (G) (HSV-2 (G)): inactive
13 | C[C@H](NP(=O)(OCC(CCn1cnc2c(=O)[nH]c(N)nc21)COP(=O)(N[C@@H](C)C(=O)OCc1ccccc1)Oc1cccc2ccccc12)Oc1cccc2ccccc12)C(=O)OCc1ccccc1 (stereo partly drawn) [Compound 37] | >50 | inactive | – | Antiviral Activity EC50 HSV-1 (KOS) (HSV-1 (KOS)): inactive; Antiviral Activity EC50 HSV-2 (G) (HSV-2 (G)): inactive
14 | CC(C)(NP(=O)(OCC(CCn1cnc2c(=O)[nH]c(N)nc21)COP(=O)(NC(C)(C)C(=O)OCc1ccccc1)Oc1ccccc1)Oc1ccccc1)C(=O)OCc1ccccc1 (stereo not drawn) [Compound 38] | >50 | inactive | >100 | Antiviral Activity EC50 HSV-1 (KOS) (HSV-1 (KOS)): inactive; Antiviral Activity EC50 HSV-2 (G) (HSV-2 (G)): inactive
15 | CC(C)(NP(=O)(OCC(CO)CCn1cnc2c(=O)[nH]c(N)nc21)Oc1ccccc1)C(=O)OCc1ccccc1 (stereo not drawn) [Compound 39] | >50 | – | >100 | –
16 | CC(C)(NP(=O)(OCC(CCn1cnc2c(=O)[nH]c(N)nc21)COP(=O)(NC(C)(C)C(=O)OCc1ccccc1)Oc1cccc2ccccc12)Oc1cccc2ccccc12)C(=O)OCc1ccccc1 (stereo not drawn) [Compound 40] | >50 | inactive | 100 | Antiviral Activity EC50 HSV-1 (KOS) (HSV-1 (KOS)): inactive; Antiviral Activity EC50 HSV-2 (G) (HSV-2 (G)): inactive
17 | CC(C)(NP(=O)(OCC(CO)CCn1cnc2c(=O)[nH]c(N)nc21)Oc1cccc2ccccc12)C(=O)OCc1ccccc1 (stereo not drawn) [Compound 41] | >50 | – | >100 | –
18 | C[C@H](NP(=O)(OCC(CO)CCn1cnc2c(=O)[nH]c(N)nc21)Oc1cccc2ccccc12)C(=O)OCc1ccccc1 (stereo partly drawn) [Compound 45] | >50 | – | >100 | conversion of the starting material by carboxypeptidase Y (carboxypeptidase Y): slow and incomplete conversion; also recorded: partial
19 | COc1nc(N)nc2c1ncn2CCC(COP(=O)(N[C@@H](C)C(=O)OCc1ccccc1)Oc1ccccc1)COP(=O)(N[C@@H](C)C(=O)OCc1ccccc1)Oc1ccccc1 (stereo partly drawn) [Compound 61] | >50 | – | – | –
20 | COc1nc(N)nc2c1ncn2CCC(COP(=O)(N[C@@H](C)C(=O)OCC(C)(C)C)Oc1cccc2ccccc12)COP(=O)(N[C@@H](C)C(=O)OCC(C)(C)C)Oc1cccc2ccccc12 (stereo partly drawn) [Compound 62] | ≥20 | – | ≥100 | –
21 | CCCOC(=O)[C@H](C)NP(=O)(OCC(CCn1cnc2c(OC)nc(N)nc21)COP(=O)(N[C@@H](C)C(=O)OCCC)Oc1cccc2ccccc12)Oc1cccc2ccccc12 (stereo partly drawn) [Compound 63] | ≥50 | – | ≥100 | conversion of the starting material by carboxypeptidase Y (carboxypeptidase Y): fast conversion; also recorded: partial
22 | CCC(C)(C)COC(=O)[C@H](C)NP(=O)(OCC(CCn1cnc2c(OC)nc(N)nc21)COP(=O)(N[C@@H](C)C(=O)OCC(C)(C)CC)Oc1cccc2ccccc12)Oc1cccc2ccccc12 (stereo partly drawn) [Compound 64] | – | – | ≥100 | –
23 | COc1nc(N)nc2c1ncn2CCC(CO)COP(=O)(N[C@@H](C)C(=O)OCc1ccccc1)Oc1cccc2ccccc12 (stereo partly drawn) [Compound 67] | >50 | retention of some activity | – | –
24 | COc1nc(N)nc2c1ncn2CCC(CO)COP(=O)(N[C@@H](C)C(=O)OCC(C)(C)C)Oc1cccc2ccccc12 (stereo partly drawn) [Compound 68] | >50 | retention of some activity | – | –
25 | CCCOC(=O)[C@H](C)NP(=O)(OCC(CO)CCn1cnc2c(OC)nc(N)nc21)Oc1cccc2ccccc12 (stereo partly drawn) [Compound 69] | ≥50 | – | 100 | time to complete conversion of the starting material (carboxypeptidase Y): ≤ 2 h; conversion of the starting material by carboxypeptidase Y (carboxypeptidase Y): complete conversion and full
26 | COC(=O)[C@H](C)NP(=O)(OCC(CO)CCn1cnc2c(OC)nc(N)nc21)Oc1cccc2ccccc12 (stereo partly drawn) [Compound 70] | ≥50 | – | ≥100 | –
27 | CCC(C)(C)COC(=O)[C@H](C)NP(=O)(OCC(CO)CCn1cnc2c(OC)nc(N)nc21)Oc1cccc2ccccc12 (stereo partly drawn) [Compound 71] | ≥50 | – | 100 | –
28 | COc1nc(N)nc2c1ncn2CCC(CO)COP(=O)(N[C@@H](C)C(=O)OC1CCCCC1)Oc1cccc2ccccc12 (stereo partly drawn) [Compound 72] | – | retention of some activity | ≥100 | –
29 | C[C@H](NP1(=O)OCC(OCn2cnc3c(Cl)nc(N)nc32)CO1)C(=O)OCc1ccccc1 (stereo partly drawn) [Compound 75] | – | – | – | time to complete conversion of the starting material (carboxypeptidase Y): ≤ 1 h; conversion of the starting material by carboxypeptidase Y (carboxypeptidase Y): completely metabolised
30 | CC(=O)OCC(COP(=O)(N[C@@H](C)C(=O)OCc1ccccc1)Oc1ccccc1)OCn1cnc2c(Cl)nc(N)nc21 (stereo partly drawn) [Compound 77] | – | – | – | conversion of the starting material by carboxypeptidase Y (carboxypeptidase Y): quickly metabolised
